The text below walks through data of patent EP0165151A1, “Peptide derivatives as renin inhibitors, process for their preparation and their therapeutical application” (SANOFI, priority 1984, dated 1985).

Square brackets hold non-standard residues; d marks the D form. Peptide text beside a SMILES is read from it. * marks the point of attachment. Sta = CC(C)C[C@H](N)[C@@H](O)CC(=O)O; Isovaleryl = CC(C)CC(=O)*; Nle = CCCC[C@H](N)C(=O)O

This data set can be described thus: Solubility in water. It is filed as physicochemical. The following applies: pH : 7,4. The source says:
Dans les mêmes conditions les composés SR 42406 sous forme de chlorhydrate et SR 43054 B possèdent une solubilité dans l'eau de 1 % et 4 % environ.

For the molecule `CCCC[C@H](NC(=O)[C@H](Cc1ccccc1)NC(=O)CC(C)C)C(=O)N[C@@H](CC(C)C)[C@@H](O)CC(=O)N[C@@H](C)C(=O)N[C@@H](CC(C)C)[C@@H](O)CC(=O)N[C@@H](CC(=O)O)C(=O)O` [SR 43504 B, iVa-Phe-Nle-Sta-Ala-Sta-Asp-OH, Disel de trishydroxyméthyl-aminométhane] (Isovaleryl-F[Nle][Sta]A[Sta]D-OH), the “solubilité dans l'eau” value was approximately 4%.

Take `CCCC[C@H](NC(=O)[C@H](Cc1ccccc1)NC(=O)CC(C)C)C(=O)N[C@@H](CC(C)C)[C@@H](O)CC(=O)N[C@@H](C)C(=O)N[C@@H](CC(C)C)[C@@H](O)CC(=O)N[C@@H](CCCCN)C(=O)O` [SR 42 654, iVa - Phe - Nle - Sta - Ala - Sta - Lys - OH] (Isovaleryl-F[Nle][Sta]A[Sta]K-OH): the “solubilité dans l'eau” value was “soluble dans l'eau à environ %”.

As to `CCCC[C@H](NC(=O)[C@H](Cc1ccccc1)NC(=O)CC(C)C)C(=O)N[C@@H](CC(C)C)[C@@H](O)CC(=O)N[C@@H](C)C(=O)N[C@@H](CC(C)C)[C@@H](O)CC(=O)N[C@@H](CCCNC(=N)N)C(=O)OC` [SR 42406, iVa - Phe - Nle - Sta - Ala - Sta - Arg - OMe] (Isovaleryl-F[Nle][Sta]A[Sta]R-OMe), the “solubilité dans l'eau” value (sous forme de chlorhydrate) is recorded as approximately 1%.
